Data as given in patent publication EP0300806A1, “Opioid analgesic liposomal delivery-release system” (VESTAR, INC., priority 1987, dated 1989).
Where a name gives a salt, the structure may show the parent alone.

What was measured:
[1] = tested on: phenylquinone-induced writhing; assay: phenylquinone-induced writhing assay, analgesia after i.m. injection; format: in vivo, Mice
Procedure: Duration of analgesia was evaluated using the phenylquinone-induced writhing assay essentially as described by Pircio et al. R.W. Pircio, J.A. Gylys, R.L. Cavanagh, J.P. Buyniski and M.E. Bierwagen, 220 Archives Internationales de Pharmacodynamie et de Therapie, 231-57 (1976). Mice were given intraperitoneal injections of 0.025% (w/v) phenyl-p-quinone in 5% ethanol (2.5 mg/kg). […] The writhing phenomenon has been described by Siegmund et al. E. Siegmund, R. Cadmus, G. Lu, 95 Proceedings of the Society for Experimental Biology and Medicine, 729-31 (1957). Five animals per observer was established as a manageable procedure yielding values which were reproducible and consistent from observer to observer. […]
The dose required for single injection ED₅₀ and ED₁₀₀ of free butorphanol tartrate was determined by administering various doses of free drug intramuscularly 15 minutes prior to the i.p. injections of phenylquinone. […] The ED₅₀ and ED₁₀₀ values determined in this study were compared for agreement with reported literature values and used along with control values as a reference standard for each study. […]
Extended analgesia studies were conducted using no fewer than 50 animals per treatment group. […] The times at which analgesic effect was measured were based on the particular treatment and on the results of the previous bioassays for the treatment group.

[2] = tested on: phenylquinone-induced writhing; assay: tolerance (tachyphylaxis) studies: shift of ED50 of free butorphanol tartrate in the writhing assay after pretreatment; format: in vivo, mice

Oc1ccc2c(c1)C13CCCCC1(O)C(C2)N(CC1CCC1)CC3 (stereo not drawn) [free butorphanol tartrate, butorphanol tartrate]
effect of higher doses on duration of analgesia ([1]; 2 ug, 50 ug and 500 ug dose curves, Fig. 1): do not provide extended efficacy | ED50 ([1]; Mus musculus, im, 0.25 h, untreated mice, single i.m. injection of free drug 15 minutes prior to i.p. phenylquinone, read-out: ED₅₀): 0.05 mg/kg | 36 hr. ED₅₀ ([2]; 5 injections of 100 ug/kg at 3 hr. intervals, second protocol, Fig. 6): suggestive of recovery from tachyphylaxis | ED50 ([2]; Mus musculus, im, after four i.m. injections of 50 ul saline at 3 hr. intervals, determined 13 hrs. after start, read-out: ED₅₀ for free butorphanol tartrate after multiple injections of saline): ~0.125 mg/kg | increase in ED₅₀ values between no treatment animals and multiple injection animals ([2]; after 4 injections of the ED₁₀₀ dose at 3 hr. intervals, first protocol, Fig. 2): 4-5 fold | shift of ED₅₀ relative to its initial value ([2]; pretreatment with 4 injections of 100 ug/kg, Fig. 4 bottom panel): approximately 4 times its initial value
